Source: US20150080551A1, “LYSINE OLIGOMER DERIVATIVE AND CARTILAGE TISSUE MARKER MADE THEREOF” (NATIONAL UNIVERSITY CORPORATION OKAYAMA UNIVERSITY, priority 2012, published 2015)

Experiments:
[1] = system: cartilage tissue (articular cartilage, distal end of a femur); experiment: Immersion of a distal end of a femur of a normal mouse in a cartilage tissue visualization reagent solution, ex vivo fluorescence microscopy; settings: room temperature, 1 hour, GFP filter; for staining of cartilage (fluorescence signal, FIG. 2): 0.1 mM solution in saline; for staining of cartilage (fluorescence signal, FIG. 1): 0.1 mM solution in saline containing 25% ethanol
Description: Two normal C57B6/J strain mouse (8 week old, female) were prepared. The animals were euthanized by ether deep anesthesia and a distal end of a femur was excised. The sample was immersed in 100 μL of a 0.1 mM lysine oligomer derivative solution at room temperature for 1 hour. After 1 hour, the sample was washed twice with buffered saline. This was embedded in 4% CMC compound, frozen in hexane/liquid nitrogen, and cut into thin slices with a thickness of 7 μm using a tungsten carbide blade TC-65 (Leica) for a hard tissue slice and Cryofilm (Leica) in a cryostat without decalcification. The slice was thawed at room temperature for 10 sec, immersed in 100% ethanol for about 30 sec, stored in 4% paraformaldehyde (PFA) for a while, washed with tap water, and then subjected to fluorescence microscopy. An optical filer was a GFP filter. A lysine peptide was labeled with a fluorescence agent NBD, so that its signal was detected.
Here, a solvent of the solution of a lysine oligomer derivative was saline containing 25% ethanol. FIG. 1 is an enlarged image of an articular cartilage area in a sagittal plane of a knee joint in a distal end of a femur. The broken line indicates a tide-mark which is a boundary plane between a cartilage and a calcified cartilage layer.
Here, a solvent of the solution of a lysine oligomer derivative was saline. FIG. 2 is an enlarged image of an articular cartilage area in a sagittal plane of a knee joint in a distal end of a femur. […] For any of compounds 26 to 29, staining of a cartilage tissue was observed. However, staining of compound 26 containing only one lysine unit was slight. […] The white (green in a color photo) regions in the cartilage layer correspond to a part stained by a compound. Some of the circular regions (blue in a color photo) correspond to nuclear stain parts by Hoechst, which were also observed in the calcified layer.

NCCCC[C@H](N)C(=O)NCCNc1ccc([N+](=O)[O-])c2nonc12 [Compound 26]
staining of cartilage (fluorescence signal, FIG. 2) [1]: slight | melting point: 151.4 to 153.9 °C

NCCCC[C@H](N)C(=O)NCCCC[C@H](N)C(=O)NCCCC[C@H](N)C(=O)NCCNc1ccc([N+](=O)[O-])c2nonc12 [Compound 27]
staining of cartilage (fluorescence signal, FIG. 1) [1]: Staining was observed in the cartilage tissue | staining of cartilage (fluorescence signal, FIG. 2) [1]: adequately stained | melting point: 183.3 to 184.7 °C

NCCCC[C@H](N)C(=O)NCCCC[C@H](N)C(=O)NCCCC[C@H](N)C(=O)NCCCC[C@H](N)C(=O)NCCNc1ccc([N+](=O)[O-])c2nonc12 [Compound 28]
staining of cartilage (fluorescence signal, FIG. 2) [1]: further strongly stained

NCCCC[C@H](N)C(=O)NCCCC[C@H](N)C(=O)NCCCC[C@H](N)C(=O)NCCCC[C@H](N)C(=O)NCCCC[C@H](N)C(=O)NCCNc1ccc([N+](=O)[O-])c2nonc12 [Compound 29]
staining of cartilage (fluorescence signal, FIG. 2) [1]: further strongly stained

N=C(N)NCCNc1c(I)cc(C(=O)NCCCC[C@H](NC(=O)c2cc(I)c(NCCNC(=N)N)c(I)c2)C(=O)NCCCC[C@H](NC(=O)c2cc(I)c(NCCNC(=N)N)c(I)c2)C(=O)NCCCC[C@H](NC(=O)c2cc(I)c(NCCNC(=N)N)c(I)c2)C(=O)NCCNc2ccc([N+](=O)[O-])c3nonc23)cc1I [Compound 42]
staining of cartilage (fluorescence signal, FIG. 1) [1]: Staining was observed in the cartilage tissue | melting point: 189.4 to 191.5 °C

NCCNc1c(I)cc(C(=O)NCCCC[C@H](NC(=O)c2cc(I)c(NCCN)c(I)c2)C(=O)NCCCC[C@H](NC(=O)c2cc(I)c(NCCN)c(I)c2)C(=O)NCCCC[C@H](NC(=O)c2cc(I)c(NCCN)c(I)c2)C(=O)NCCNc2ccc([N+](=O)[O-])c3nonc23)cc1I [Compound 43]
staining of cartilage (fluorescence signal, FIG. 1) [1]: staining was confined to the surface tissue | melting point: 192.9 to 195.7 °C
